What all share (assay type): biochemical
In one assay the target is T1, IKKβ (Homo sapiens, UniProt O14920).
T1 sequence (O14920 1-756): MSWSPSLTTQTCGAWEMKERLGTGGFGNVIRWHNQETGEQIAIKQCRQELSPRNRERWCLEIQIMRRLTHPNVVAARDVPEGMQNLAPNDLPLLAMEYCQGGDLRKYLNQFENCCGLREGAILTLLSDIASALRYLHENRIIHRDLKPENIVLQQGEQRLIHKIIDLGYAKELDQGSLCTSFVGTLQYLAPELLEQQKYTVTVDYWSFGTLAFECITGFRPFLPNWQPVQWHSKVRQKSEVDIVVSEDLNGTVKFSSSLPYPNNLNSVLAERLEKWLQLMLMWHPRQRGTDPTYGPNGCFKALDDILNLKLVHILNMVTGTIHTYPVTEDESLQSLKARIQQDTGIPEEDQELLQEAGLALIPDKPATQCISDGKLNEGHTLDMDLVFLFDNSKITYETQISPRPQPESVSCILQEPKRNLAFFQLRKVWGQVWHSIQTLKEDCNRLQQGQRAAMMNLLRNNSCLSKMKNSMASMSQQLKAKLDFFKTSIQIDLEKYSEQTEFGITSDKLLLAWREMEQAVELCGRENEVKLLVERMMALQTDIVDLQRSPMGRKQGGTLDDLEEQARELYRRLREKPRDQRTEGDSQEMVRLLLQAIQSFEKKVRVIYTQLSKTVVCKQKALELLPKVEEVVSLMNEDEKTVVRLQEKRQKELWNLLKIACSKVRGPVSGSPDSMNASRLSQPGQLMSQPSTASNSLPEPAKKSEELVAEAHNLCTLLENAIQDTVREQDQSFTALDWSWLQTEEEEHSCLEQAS
In words: Kinase screen: IKKb assay. The method, then:
(§1) Generally, the same procedure was used for all assays. Since the total assay volume was 25.5 microliters, 0.5 microliters of inhibitors at 51× assay concentration were added to the plates before any other addition.
(§2) The basic procedure was to add 0.5 microliters inhibitor/control in DMSO to plate. Fifteen microliters of enzyme/substrate/buffer mix were added and incubated for 5 min. Ten microliters MgATP at the relevant concentration were added and incubated for 30 min. The assay was stopped by adding 5 microliters of 3% orthophosphoric acid. The assay was transferred to a p81 filter plate and read in a scintillation counter of 30 sec/well. Note that this assay procedure was not followed for MKK1, which instead involved a two-step assay, and PKC alpha, which required the addition of lipid vesicles.
IKKb assay: 5-20 mU of IKKb (diluted in 50 mM Tris (pH 7.5), 0.1 mM EGTA, 1 mg/ml BSA, 0.1%, b-Mercaptoethanol) was assayed against substrate peptide ([…]) (SEQ ID NO: 20) in a final volume of 25.5 μl containing 50 mM Tris (pH 7.5), 0.1 mM EGTA, 0.1%, b-Mercaptoethanol, 300 μM substrate peptide, 10 mM magnesium acetate and 0.005 mM [33P-g-ATP] (500-1000 cpm/pmole) and incubated for 30 mins at room temperature. Assays were stopped by addition of 5 µl of 0.5M (3%) orthophosphoric acid. Assays were harvested onto P81 Unifilter plates using a wash buffer of 50 mM orthophosphoric acid.

For the next assay, the target named is SRPK1 (Homo sapiens, UniProt Q96SB4). In words: Kinase screen: SRPK1 assay. The method, then: as §1, §2
SRPK1 assay: 5-20 mU of SRPK1 (diluted in 50 mM Tris (pH 7.5), 0.1 mM EGTA, 1 mg/ml BSA, 0.1%, b-Mercaptoethanol) was assayed against substrate peptide ([…]) (SEQ ID NO: 25) in a final volume of 25.5 μl containing 50 mM Tris (pH 7.5), 0.1 mM EGTA, 0.1%, b-Mercaptoethanol, 300 μM substrate peptide, 10 mM magnesium acetate and 0.05 mM [33P-g-ATP] (500-1000 cpm/pmole) and incubated for 30 mins at room temperature. Assays were stopped by addition of 5 μl of 0.5M (3%) orthophosphoric acid. Assays were harvested onto P81 Unifilter plates using a wash buffer of 50 mM orthophosphoric acid.

For a further assay, the target named is EPH-A2 (Homo sapiens, UniProt P29317). The experiment in a line: Kinase screen: EPH-A2 assay. To be noted: 10 micromolar compound; for remaining activity at 10 µM: read-out: mean activity remaining (as a percentage of the original activity), EPH A2. The method, then:
as §1, §2
EPH-A2 assay: EPH-A2 (5-20 mU diluted in 50 mM Tris pH 7.5, 0.1 mM EGTA, 1 mg/ml BSA) was assayed against a substrate peptide (Poly Glut Tyr) in a final volume of 25.5 μl containing 50 mM Tris pH 7.5, 0.1 mg/ml substrate peptide, 10 mM magnesium acetate and 0.05 mM [33P-g-ATP] (50-1000 cpm/pmole) and incubated for 30 min at room temperature. Assays were stopped by addition of 5 μl of 0.5 M (3%) orthophosphoric acid and then harvested onto P81 Unifilter plates with a wash buffer of 50 mM orthophosphoric acid.

For another assay, the target named is IGF-1R (Homo sapiens, UniProt P08069). The experiment in a line: Kinase screen: IGF-1R assay. To be noted: 10 micromolar compound; for remaining activity at 10 µM: read-out: mean activity remaining (as a percentage of the original activity), IGF1-R. As to the method:
as §1, §2
IGF-1R assay: IGF-1R (5-20 mU diluted in 50 mM Tris pH 7.5, 0.1 mM EGTA, 1 mg/ml BSA) was assayed against a substrate peptide ([…]) (SEQ ID NO: in a final volume of 25.5 μl containing 50 mM Tris pH 7.5, 300 μM substrate peptide, 10 mM magnesium acetate and 0.005 mM [33P-g-ATP] (50-1000 cpm/pmole) and incubated for 30 min at room temperature. Assays were stopped by addition of 5 μl of 0.5 M (3%) orthophosphoric acid and then harvested onto P81 Unifilter plates with a wash buffer of 50 mM orthophosphoric acid.

The mark [1] stands for this setting: 10 micromolar compound, read-out: mean activity remaining (as a percentage of the original activity), IKKb.
Where [2] appears, read: 10 micromolar compound, read-out: mean activity remaining (as a percentage of the original activity), SRPK1.

Where two headings read alike, the source gives them in different places.

Chain of SRPK1 (Q96SB4 whole entry, species assumed): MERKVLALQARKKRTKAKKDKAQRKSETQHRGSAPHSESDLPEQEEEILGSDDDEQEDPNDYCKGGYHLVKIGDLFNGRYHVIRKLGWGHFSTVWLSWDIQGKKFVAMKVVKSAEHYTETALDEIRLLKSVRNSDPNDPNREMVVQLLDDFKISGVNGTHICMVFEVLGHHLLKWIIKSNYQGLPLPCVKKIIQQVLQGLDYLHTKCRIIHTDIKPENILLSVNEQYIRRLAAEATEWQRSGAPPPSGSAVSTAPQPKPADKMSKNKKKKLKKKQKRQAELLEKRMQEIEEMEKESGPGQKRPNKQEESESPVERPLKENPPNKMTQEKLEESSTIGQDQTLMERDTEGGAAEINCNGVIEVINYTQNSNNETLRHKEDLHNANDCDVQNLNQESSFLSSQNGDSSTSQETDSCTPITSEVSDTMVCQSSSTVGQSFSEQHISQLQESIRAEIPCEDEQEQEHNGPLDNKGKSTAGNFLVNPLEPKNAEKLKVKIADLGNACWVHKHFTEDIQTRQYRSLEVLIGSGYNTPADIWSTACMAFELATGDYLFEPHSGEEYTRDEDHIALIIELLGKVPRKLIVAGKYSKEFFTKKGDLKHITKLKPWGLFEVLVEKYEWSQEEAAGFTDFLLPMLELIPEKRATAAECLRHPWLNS
Chain of IGF-1R (P08069 31-1367, species assumed): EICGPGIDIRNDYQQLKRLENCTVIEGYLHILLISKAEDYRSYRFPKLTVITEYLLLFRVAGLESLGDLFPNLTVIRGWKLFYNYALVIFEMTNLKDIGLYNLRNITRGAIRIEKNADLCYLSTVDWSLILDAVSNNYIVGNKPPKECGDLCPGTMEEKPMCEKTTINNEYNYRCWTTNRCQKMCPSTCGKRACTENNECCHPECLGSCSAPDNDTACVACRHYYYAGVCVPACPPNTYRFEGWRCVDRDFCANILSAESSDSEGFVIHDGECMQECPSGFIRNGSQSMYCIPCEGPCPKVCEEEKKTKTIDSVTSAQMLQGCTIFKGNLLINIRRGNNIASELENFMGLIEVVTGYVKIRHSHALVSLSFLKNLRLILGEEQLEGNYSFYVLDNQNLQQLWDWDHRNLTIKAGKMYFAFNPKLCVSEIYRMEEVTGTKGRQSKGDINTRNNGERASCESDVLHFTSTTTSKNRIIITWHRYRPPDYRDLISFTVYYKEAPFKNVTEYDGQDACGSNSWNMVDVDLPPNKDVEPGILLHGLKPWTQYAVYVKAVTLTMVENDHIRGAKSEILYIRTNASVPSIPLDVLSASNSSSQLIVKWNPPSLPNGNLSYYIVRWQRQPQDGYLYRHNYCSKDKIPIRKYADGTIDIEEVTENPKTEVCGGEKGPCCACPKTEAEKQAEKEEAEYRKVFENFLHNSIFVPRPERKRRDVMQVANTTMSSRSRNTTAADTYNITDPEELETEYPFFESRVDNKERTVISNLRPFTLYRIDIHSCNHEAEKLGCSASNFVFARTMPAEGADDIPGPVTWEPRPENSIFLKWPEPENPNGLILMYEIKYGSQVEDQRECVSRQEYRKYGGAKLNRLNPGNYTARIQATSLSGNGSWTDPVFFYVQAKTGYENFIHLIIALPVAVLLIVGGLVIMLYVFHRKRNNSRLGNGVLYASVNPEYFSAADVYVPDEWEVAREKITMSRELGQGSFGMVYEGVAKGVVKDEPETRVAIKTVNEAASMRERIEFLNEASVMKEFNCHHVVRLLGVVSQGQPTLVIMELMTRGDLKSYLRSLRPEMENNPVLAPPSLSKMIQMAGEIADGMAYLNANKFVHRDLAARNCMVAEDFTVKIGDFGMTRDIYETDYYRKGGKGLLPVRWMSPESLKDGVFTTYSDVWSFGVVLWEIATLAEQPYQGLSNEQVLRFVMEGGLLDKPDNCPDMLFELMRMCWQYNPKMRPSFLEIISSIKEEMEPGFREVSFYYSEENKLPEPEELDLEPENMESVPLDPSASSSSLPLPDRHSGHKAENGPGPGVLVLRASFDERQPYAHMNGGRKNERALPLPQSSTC
Chain of EPH-A2 (P29317 24-976, species assumed): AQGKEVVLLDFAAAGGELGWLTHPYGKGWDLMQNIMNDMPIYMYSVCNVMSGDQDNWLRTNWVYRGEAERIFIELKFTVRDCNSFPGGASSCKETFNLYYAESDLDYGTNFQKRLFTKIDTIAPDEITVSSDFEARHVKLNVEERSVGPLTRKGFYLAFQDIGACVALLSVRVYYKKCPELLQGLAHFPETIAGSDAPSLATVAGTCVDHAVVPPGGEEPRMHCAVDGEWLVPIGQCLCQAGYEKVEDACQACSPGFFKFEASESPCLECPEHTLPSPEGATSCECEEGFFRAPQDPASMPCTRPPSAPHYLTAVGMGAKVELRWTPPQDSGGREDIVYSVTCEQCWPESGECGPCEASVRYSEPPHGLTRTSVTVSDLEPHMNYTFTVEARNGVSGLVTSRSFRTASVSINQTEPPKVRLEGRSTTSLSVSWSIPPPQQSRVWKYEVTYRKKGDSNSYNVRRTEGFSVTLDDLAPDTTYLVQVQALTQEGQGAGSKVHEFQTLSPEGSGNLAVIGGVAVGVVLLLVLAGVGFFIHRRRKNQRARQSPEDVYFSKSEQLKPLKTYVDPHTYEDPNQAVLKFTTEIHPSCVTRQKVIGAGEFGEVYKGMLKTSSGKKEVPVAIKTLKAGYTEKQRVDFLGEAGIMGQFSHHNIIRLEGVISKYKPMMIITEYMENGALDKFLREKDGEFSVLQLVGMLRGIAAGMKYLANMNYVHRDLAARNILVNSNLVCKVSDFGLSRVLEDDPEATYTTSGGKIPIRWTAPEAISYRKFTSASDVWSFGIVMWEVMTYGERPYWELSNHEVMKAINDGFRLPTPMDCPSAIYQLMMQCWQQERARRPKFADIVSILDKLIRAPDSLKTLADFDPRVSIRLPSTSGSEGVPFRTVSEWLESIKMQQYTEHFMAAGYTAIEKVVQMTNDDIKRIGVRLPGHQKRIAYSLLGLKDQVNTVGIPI

By remaining activity is commonly meant the signal under treatment as a percentage of the control signal. In the case of `CC(C)c1cnn2c(NCc3ccccc3)cc(NCCCCCCCN)nc12` [BS-181], the remaining activity at 10 µM on IKKβ (IKKβ, 10 μM, read-out: Mean Remaining Enzyme Activity (%)) was 96%; on SRPK1 (SRPK1, 10 μM, read-out: Mean Remaining Enzyme Activity (%)), 44%.

On to `C=C[C@H](CO)Nc1cc(NCc2ccccc2)n2ncc(C(C)C)c2n1` [ICEC0065], for which the remaining activity at 10 µM on IKKβ (setting [1]) stood at 81%; at SRPK1 (setting [2]), 84%; on EPH-A2, 109%; on IGF-1R, 63%.

Take `CC(C)c1cnn2c(NCc3ccccc3)cc(N[C@@H](CO)[C@H](O)CO)nc12` [ICEC0318, (3S)-3-(7-(Benzylamino)-3-isopropylpyrazolo[1,5-a]pyrimidin-5-ylamino)butane-1,2,4-triol]: the remaining activity at 10 µM at IKKβ (setting [1]) amounted to 80%; on SRPK1 (setting [2]), 62%; at EPH-A2 it was 116%; on IGF-1R, 67%.

In the case of `CC(C)c1cnn2c(NCc3ccccc3F)cc(NCCCCCN)nc12` [ICEC-0232], on IKKβ (10 micromolar compound), the “mean activity remaining (as a percentage of the original activity), IKKb” value is recorded as 84%. In addition, on SRPK1 (10 micromolar compound), the “mean activity remaining (as a percentage of the original activity), SRPK1” value came out at 38%. For the same compound, the “mean activity remaining (as a percentage of the original activity), EPH A2” value at EPH-A2 stood at 92%. For the same compound, on IGF-1R, the “mean activity remaining (as a percentage of the original activity), IGF1-R” value is recorded as 17%.

Consider `CC[C@H](CO)Nc1cc(NCc2ccccc2)n2ncc(C(C)C)c2n1` [ICEC0067], for which the remaining activity at 10 µM at IKKβ (setting [1]) was determined as 84%; at SRPK1 (setting [2]), 50%; on EPH-A2, 101%; at IGF-1R it was 63%.
